Experimental data reported in PubChem BioAssay AID1918991 (Molecular Pharmacology Branch, DTP, NCI, 2023).

Test system: 186277-243-T-J2-PDC complex spheroid growth
Assay: Anticancer human tumor 186277-243-T-J2-PDC patient-derived colon adenocarcinoma cell line growth inhibition [AhR]
Details: for IC50: curve of first compound; for viability, T/C: stronger effect = lower value; active means viability on the fitted dose curve at most 10% of control; inactive means the rest
In short: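 Spheroids combined tumor cells with HUVEC endothelial cells and human MSCs as stroma. AhR antagonists were paired with standard or investigational drugs, each dosed in half-log steps down from near clinical Cmax, or from 10 microM where Cmax was unknown.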

[1] = second compound 0.1 µM, first compound 0.000949 µM
[2] = second compound 0.1 µM, first compound 0.003 µM
[3] = second compound 0.1 µM, first compound 0.00949 µM
[4] = second compound 0.1 µM, first compound 0.03 µM
[5] = second compound 0.1 µM, first compound 0.0949 µM
[6] = second compound 0.1 µM, first compound 0.3 µM
[7] = second compound 0.316 µM, first compound 0.000949 µM
[8] = second compound 0.316 µM, first compound 0.003 µM
[9] = second compound 0.316 µM, first compound 0.00949 µM
[10] = second compound 0.316 µM, first compound 0.03 µM
[11] = second compound 0.316 µM, first compound 0.0949 µM
[12] = second compound 0.316 µM, first compound 0.3 µM
[13] = second compound 1 µM, first compound 0.000949 µM
[14] = second compound 1 µM, first compound 0.003 µM
[15] = second compound 1 µM, first compound 0.00949 µM
[16] = second compound 1 µM, first compound 0.03 µM
[17] = second compound 1 µM, first compound 0.0949 µM
[18] = second compound 1 µM, first compound 0.3 µM
[19] = second compound 3.16 µM, first compound 0.000949 µM
[20] = second compound 3.16 µM, first compound 0.003 µM
[21] = second compound 3.16 µM, first compound 0.00949 µM
[22] = second compound 3.16 µM, first compound 0.03 µM
[23] = second compound 3.16 µM, first compound 0.0949 µM
[24] = second compound 3.16 µM, first compound 0.3 µM
[25] = second compound 10 µM, first compound 0.000949 µM
[26] = second compound 10 µM, first compound 0.003 µM
[27] = second compound 10 µM, first compound 0.00949 µM
[28] = second compound 10 µM, first compound 0.03 µM
[29] = second compound 10 µM, first compound 0.0949 µM
[30] = second compound 10 µM, first compound 0.3 µM
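Further: spheroids exposed to compounds for seven days before the viability read.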
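Wherever viability, T/C is given: luminescent signal used as a stand-in for viable cell amount; 100% = DMSO vehicle control wells.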

CC(C)CC(NC(=O)C(Cc1ccccc1)NC(=O)c1cnccn1)B(O)O (stereo not given) + Cc1ccccc1N=Nc1ccc(NC(=O)c2ccnn2C)c(C)c1
active: viability, T/C [4] 2.71% | viability, T/C [5] 1.36% | viability, T/C [6] 0.12% | viability, T/C [10] 1.86% | viability, T/C [11] 0.39% | viability, T/C [12] 0.12% | viability, T/C [16] 1.95% | viability, T/C [17] 1.08% | viability, T/C [18] 0.12% | viability, T/C [22] 1.92% | viability, T/C [23] 0.77% | viability, T/C [24] 0.14% | viability, T/C [28] 3.12% | viability, T/C [29] 0.43% | viability, T/C [30] 0.21%
inactive: viability, T/C [1] 101% | viability, T/C [2] 108% | viability, T/C [3] 109% | viability, T/C [7] 104% | viability, T/C [8] 118% | viability, T/C [9] 97.3% | viability, T/C [13] 99.8% | viability, T/C [14] 98.2% | viability, T/C [15] 91.5% | viability, T/C [19] 104% | viability, T/C [20] 95.4% | viability, T/C [21] 89.1% | viability, T/C [25] 96% | viability, T/C [26] 90.1% | viability, T/C [27] 98.6%
15.9 nM: IC50 (second compound 3.16 µM)
17.7 nM: IC50 (second compound 0.1 µM)
16.2 nM: IC50 (second compound 1 µM)
16.7 nM: IC50 (second compound 10 µM)
16.8 nM: IC50 (second compound 0.316 µM)

CCc1c2c(nc3ccc(O)cc13)-c1cc3c(c(=O)n1C2)COC(=O)[C@]3(O)CC + Cc1ccccc1N=Nc1ccc(NC(=O)c2ccnn2C)c(C)c1
66.6 nM: IC50 (second compound 1 µM)
74 nM: IC50 (second compound 0.1 µM)
60.6 nM: IC50 (second compound 3.16 µM)
inactive: viability, T/C [1] 119% | viability, T/C [2] 143% | viability, T/C [3] 114% | viability, T/C [4] 81.7% | viability, T/C [5] 42.6% | viability, T/C [6] 25.4% | viability, T/C [7] 114% | viability, T/C [8] 145% | viability, T/C [9] 123% | viability, T/C [10] 78% | viability, T/C [11] 40.5% | viability, T/C [12] 27% | viability, T/C [13] 128% | viability, T/C [14] 157% | viability, T/C [15] 123% | viability, T/C [16] 80.5% | viability, T/C [17] 37.9% | viability, T/C [18] 24.2% | viability, T/C [19] 125% | viability, T/C [20] 138% | viability, T/C [21] 119% | viability, T/C [22] 77% | viability, T/C [23] 33.6% | viability, T/C [24] 21.1% | viability, T/C [25] 106% | viability, T/C [26] 114% | viability, T/C [27] 106% | viability, T/C [28] 76.6% | viability, T/C [29] 34.2% | viability, T/C [30] 21.9%
66.3 nM: IC50 (second compound 0.316 µM)
61.4 nM: IC50 (second compound 10 µM)

Nc1ccccc1NC(=O)c1ccc(CNC(=O)OCc2cccnc2)cc1 + Cc1ccccc1N=Nc1ccc(NC(=O)c2ccnn2C)c(C)c1
5370 nM: IC50 (second compound 0.316 µM)
5100 nM: IC50 (second compound 3.16 µM)
5860 nM: IC50 (second compound 0.1 µM)
inactive: viability, T/C (second compound 0.1 µM, first compound 0.0316 µM) 97.5% | viability, T/C (second compound 0.1 µM, first compound 0.1 µM) 90% | viability, T/C (second compound 0.1 µM, first compound 0.316 µM) 95.1% | viability, T/C (second compound 0.1 µM, first compound 1 µM) 105% | viability, T/C (second compound 0.1 µM, first compound 3.16 µM) 88.3% | viability, T/C (second compound 0.1 µM, first compound 10 µM) 16.5% | viability, T/C (second compound 0.316 µM, first compound 0.0316 µM) 106% | viability, T/C (second compound 0.316 µM, first compound 0.1 µM) 95.9% | viability, T/C (second compound 0.316 µM, first compound 0.316 µM) 96.7% | viability, T/C (second compound 0.316 µM, first compound 1 µM) 94.4% | viability, T/C (second compound 0.316 µM, first compound 3.16 µM) 79% | viability, T/C (second compound 0.316 µM, first compound 10 µM) 16.2% | viability, T/C (second compound 1 µM, first compound 0.0316 µM) 102% | viability, T/C (second compound 1 µM, first compound 0.1 µM) 96.7% | viability, T/C (second compound 1 µM, first compound 0.316 µM) 108% | viability, T/C (second compound 1 µM, first compound 1 µM) 91.4% | viability, T/C (second compound 1 µM, first compound 3.16 µM) 85.4% | viability, T/C (second compound 1 µM, first compound 10 µM) 15% | viability, T/C (second compound 3.16 µM, first compound 0.0316 µM) 93.9% | viability, T/C (second compound 3.16 µM, first compound 0.1 µM) 97.7% | viability, T/C (second compound 3.16 µM, first compound 0.316 µM) 84.8% | viability, T/C (second compound 3.16 µM, first compound 1 µM) 96.8% | viability, T/C (second compound 3.16 µM, first compound 3.16 µM) 75.9% | viability, T/C (second compound 3.16 µM, first compound 10 µM) 13.2% | viability, T/C (second compound 10 µM, first compound 0.0316 µM) 82.8% | viability, T/C (second compound 10 µM, first compound 0.1 µM) 94.2% | viability, T/C (second compound 10 µM, first compound 0.316 µM) 96.5% | viability, T/C (second compound 10 µM, first compound 1 µM) 97.4% | viability, T/C (second compound 10 µM, first compound 3.16 µM) 61.2% | viability, T/C (second compound 10 µM, first compound 10 µM) 12.6%
5560 nM: IC50 (second compound 1 µM)
4120 nM: IC50 (second compound 10 µM)
